Calls of active or inactive are those of the source. The rule behind the calls is not given here.
Columns and labels:
[1] = Cytotoxicity against human K562-Tax cells assessed as reduction in cell viability incubated for 72 hrs by MTS assay; type: functional, cell-based
[2] = Cytotoxicity against human BJ cells assessed as reduction in cell viability incubated for 72 hrs by MTS assay; type: toxicity, cell-based
CCRF-CEM [3] = assay: Induction of apoptosis in human CCRF-CEM cells assessed as early apoptotic cells at 1 time IC50 incubated for 24 hrs by Annexin V and propidium iodide staining based flow cytometry analysis (reference value: […]); type: functional
CCRF-CEM [4] = assay: Induction of apoptosis in human CCRF-CEM cells assessed as late apoptotic cells at 1 time IC50 incubated for 24 hrs by Annexin V and propidium iodide staining based flow cytometry analysis (reference value: […]); type: functional
[5] = Cytotoxicity against human MRC5 cells assessed as reduction in cell viability incubated for 72 hrs by MTS assay; type: toxicity, cell-based
CCRF-CEM [6] = assay: Induction of apoptosis in human CCRF-CEM cells assessed as accumulation of Bid protein expression at 1 to 5 times IC50 incubated for 24 hrs by Western blot analysis; type: functional, cell-based
CCRF-CEM [7] = assay: Induction of apoptosis in human CCRF-CEM cells assessed as late apoptotic cells at 5 times IC50 incubated for 24 hrs by Annexin V and propidium iodide staining based flow cytometry analysis […]; type: functional
CCRF-CEM [8] = assay: Induction of apoptosis in human CCRF-CEM cells assessed as accumulation of Bax protein expression at 1 to 5 times IC50 incubated for 24 hrs by Western blot analysis; type: functional, cell-based
CCRF-CEM [9] = assay: Induction of apoptosis in human CCRF-CEM cells assessed as viable cells at 5 times IC50 incubated for 24 hrs by Annexin V and propidium iodide staining based flow cytometry analysis […]; type: functional
CCRF-CEM [10] = assay: Induction of apoptosis in human CCRF-CEM cells assessed as PARP cleavage at 1 to 5 times IC50 incubated for 24 hrs by Western blot analysis; type: functional, cell-based
[11] = Cytotoxicity against human HCT116-p53-null cells assessed as reduction in cell viability incubated for 72 hrs by MTS assay; type: functional, cell-based
CCRF-CEM [12] = assay: Induction of apoptosis in human CCRF-CEM cells assessed as early apoptotic cells at 5 times IC50 incubated for 24 hrs by Annexin V and propidium iodide staining based flow cytometry analysis […]; type: functional
CCRF-CEM [13] = assay: Induction of apoptosis in human CCRF-CEM cells assessed as viable cells at 1 time IC50 incubated for 24 hrs by Annexin V and propidium iodide staining based flow cytometry analysis […]; type: functional
HCT-116 = assay: Cytotoxicity against human HCT-116 cells assessed as reduction in cell viability incubated for 72 hrs by MTS assay; type: functional, cell-based; conditions: HCT-116, 72 h
U2OS = assay: Cytotoxicity against human U2OS cells assessed as reduction in cell viability incubated for 72 hrs by MTS assay; type: functional, cell-based
K562 = assay: Cytotoxicity against human K562 cells assessed as reduction in cell viability incubated for 72 hrs by MTS assay; type: functional, cell-based; conditions: K562, 72 h
CCRF-CEM [14] = assay: Cytotoxicity against human CCRF-CEM cells assessed as reduction in cell viability incubated for 72 hrs by MTS assay; type: functional, cell-based
CEM-DNR = assay: Cytotoxicity against human CEM-DNR cells assessed as reduction in cell viability incubated for 72 hrs by MTS assay; type: functional, cell-based
A549 = assay: Cytotoxicity against human A549 cells assessed as reduction in cell viability incubated for 72 hrs by MTS assay; type: functional, cell-based; conditions: A549, 72 h
CCRF-CEM [15] = assay: Induction of apoptosis in human CCRF-CEM cells assessed as increase in Noxa expression at 1 to 5 times IC50 incubated for 24 hrs by Western blot analysis; type: functional, cell-based
CCRF-CEM [16] = assay: Induction of apoptosis in human CCRF-CEM cells assessed as decrease in c-Myc expression at 1 to 5 times IC50 incubated for 24 hrs by Western blot analysis; type: functional, cell-based
CCRF-CEM [17] = assay: Induction of apoptosis in human CCRF-CEM cells assessed as necrotic cells at 5 times IC50 incubated for 24 hrs by Annexin V and propidium iodide staining based flow cytometry analysis […]; type: functional
CCRF-CEM [18] = assay: Induction of apoptosis in human CCRF-CEM cells assessed as necrotic cells at 1 time IC50 incubated for 24 hrs by Annexin V and propidium iodide staining based flow cytometry analysis (reference value: 0.0%); type: functional
[19] = Chemical stability in PBS buffer at pH 7.4 assessed as compound remaining measured at 30 mins by RF-MS analysis; type: physicochemical; conditions: read-out: Stability
[20] = Chemical stability in PBS buffer at pH 7.4 assessed as compound remaining measured at 120 mins by RF-MS analysis; type: physicochemical; conditions: read-out: Stability
[21] = Stability in human liver microsomes assessed as compound remaining at 2 uM measured at 60 mins in presence of NADPH by RF-MS analysis; type: ADME, Microsome; conditions: read-out: Stability
[22] = Plasma protein binding in human at 10 uM by rapid equilibrium dialysis based RF-MS analysis; type: ADME, cell-free; conditions: read-out: PB (converted)
[23] = Apparent permeability of the compound in MDCK-MDR1 cells assessed as drug recovery at 10 uM incubated for 1 hr by RF-MS analysis; type: ADME, cell-based, Canis lupus familiaris; conditions: dog, read-out: Drug recovery
[24] = Apparent permeability of the compound in MDCK-MDR1 cells at 10 uM incubated for 1 hr by RF-MS analysis; type: ADME, cell-based, Canis lupus familiaris; conditions: dog
[25] = Stability in human liver microsomes assessed as compound remaining at 2 uM measured at 15 mins in presence of NADPH by RF-MS analysis; type: ADME, Microsome; conditions: read-out: Stability
[26] = Stability in human liver microsomes assessed as compound remaining at 2 uM measured at 30 mins in presence of NADPH by RF-MS analysis; type: ADME, Microsome; conditions: read-out: Stability
[27] = Stability in human plasma assessed as compound remaining at 2 uM measured at 15 mins by RF-MS analysis; type: ADME, cell-free; conditions: read-out: Stability
[28] = Chemical stability in PBS buffer at pH 7.4 assessed as compound remaining measured at 15 mins by RF-MS analysis; type: physicochemical; conditions: read-out: Stability
[29] = Stability in human plasma assessed as compound remaining at 2 uM measured at 60 mins by RF-MS analysis; type: ADME, cell-free; conditions: read-out: Stability
[30] = Stability in human plasma assessed as compound remaining at 2 uM measured at 120 mins by RF-MS analysis; type: ADME, cell-free; conditions: read-out: Stability
[31] = Efflux ratio of apparent permeability across basolateral to apical side over apical to basolateral side in MDCK-MDR1 cells; type: ADME, cell-based, Canis lupus familiaris; conditions: dog
[32] = Chemical stability in PBS buffer at pH 7.4 assessed as compound remaining measured at 60 mins by RF-MS analysis; type: physicochemical; conditions: read-out: Stability
[33] = Stability in human plasma assessed as compound remaining at 2 uM measured at 30 mins by RF-MS analysis; type: ADME, cell-free; conditions: read-out: Stability

SMILES	IC50 [1]	IC50 at 72 h [2]	Activity (CCRF-CEM [3])	Activity (CCRF-CEM [4])	IC50 at 72 h [5]	Activity (CCRF-CEM [6])	Activity (CCRF-CEM [7])	Activity (CCRF-CEM [8])	Activity (CCRF-CEM [9])	Activity (CCRF-CEM [10])	IC50 [11]	Activity (CCRF-CEM [12])	Activity (CCRF-CEM [13])	IC50 (HCT-116)	IC50 (U2OS)	IC50 (K562)	IC50 (CCRF-CEM [14])	IC50 (CEM-DNR)	IC50 (A549)	Activity (CCRF-CEM [15])	further results
C=C(C)[C@@H]1CC[C@]2(C(=O)OCc3oc(=O)oc3C)CC[C@]3(C)[C@H](CC[C@@H]4[C@@]5(C)CC[C@H](O)C(C)(C)[C@@H]5CC[C@]43C)[C@@H]12	12 µM	44 µM	2.1%	1.9%	41 µM	Active	3.4%	Active	83.7%	Active	15 µM	6.1%	87.4%	17 µM	19 µM	8.3 µM	4.5 µM	14 µM	13 µM	Active	Activity (CCRF-CEM [16]): Active; Activity (CCRF-CEM [17]): 6.8%; Activity (CCRF-CEM [18]): 8.7%
C=C(C)[C@@H]1CC[C@]2(C(=O)OCc3cn([C@H]4O[C@H](COC(C)=O)[C@@H](OC(C)=O)[C@H](OC(C)=O)[C@H]4OC(C)=O)nn3)CC[C@]3(C)[C@H](CC[C@@H]4[C@@]5(C)Cc6nccnc6C(C)(C)[C@@H]5CC[C@]43C)[C@@H]12 (stereo in doubt)	> 50 µM	> 50 µM	–	–	> 50 µM	–	–	–	–	–	> 50 µM	–	–	> 50 µM	> 50 µM	> 50 µM	> 50 µM	49 µM	> 50 µM	–	remaining at 0.5 h [19]: 99.5%; remaining at 2 h [20]: 92.9%; remaining at 1 h, 2 µM [21]: 97.8%; fraction unbound at 10 µM [22]: 0.107; recovery at 1 h, 10 µM [23]: 87.7%; Papp at 1 h, 10 µM [24]: 1.67 ×10⁻⁶ cm/s; remaining at 0.25 h, 2 µM [25]: 99.3%; remaining at 0.5 h, 2 µM [26]: 98.3%; remaining at 0.25 h, 2 µM [27]: 98.7%; remaining at 0.25 h [28]: 98.9%; remaining at 1 h, 2 µM [29]: 88%; remaining at 2 h, 2 µM [30]: 87.1%; efflux ratio [31]: 7.1; remaining at 1 h [32]: 92.1%; remaining at 0.5 h, 2 µM [33]: 91.2%
C=C(C)[C@@H]1CC[C@]2(C(=O)OCc3oc(=O)oc3C)CC[C@]3(C)[C@H](CC[C@@H]4[C@@]5(C)CCC(=O)C(C)(C)[C@@H]5CC[C@]43C)[C@@H]12	11 µM	> 50 µM	2%	1.9%	47 µM	Active	6.5%	Active	85.3%	Active	19 µM	7.1%	89.8%	21 µM	22 µM	0.87 µM	2.3 µM	9.1 µM	9.5 µM	Active	Activity (CCRF-CEM [17]): 1.1%; Activity (CCRF-CEM [18]): 6.4%
CC1(C)C=C2[C@H]3CC[C@@H]4[C@@]5(C)Cc6nccnc6C(C)(C)[C@@H]5CC[C@@]4(C)[C@]3(C)CC[C@@]2(C(=O)O)CC1	25 µM	> 50 µM	–	–	> 50 µM	–	–	–	–	–	> 50 µM	–	–	40 µM	> 50 µM	> 50 µM	15 µM	29 µM	> 50 µM	–	–

— ChEMBL document CHEMBL5352436, “Triterpenoid pyrazines and pyridines - Synthesis, cytotoxicity, mechanism of action, preparation of prodrugs” (Eur J Med Chem, 2022)
